Experimental data reported in US8440708B2, “Triazole-substituted arylamides as P2X3 and P2X2/3 antagonists” (Roche Palo Alto LLC, priority 2007, dated 2013).

Tests used:
rat P2X3 receptor = target: T1, rat P2X3 receptor (Rattus norvegicus, UniProt P49654); assay: P2X3/P2X2/3 FLIPR (Fluorometric Imaging Plate Reader) Assay, P2X3; assay type: cell-based; settings: CHO-K1 cells transfected with rat P2X3; agonist α,β-meATP 1 μM; Table 1; read-out: P2X3 pKi (converted)
T1 construct: expressed in transfected cells; host or cells: CHO-K1
T1 sequence (P49654 1-397): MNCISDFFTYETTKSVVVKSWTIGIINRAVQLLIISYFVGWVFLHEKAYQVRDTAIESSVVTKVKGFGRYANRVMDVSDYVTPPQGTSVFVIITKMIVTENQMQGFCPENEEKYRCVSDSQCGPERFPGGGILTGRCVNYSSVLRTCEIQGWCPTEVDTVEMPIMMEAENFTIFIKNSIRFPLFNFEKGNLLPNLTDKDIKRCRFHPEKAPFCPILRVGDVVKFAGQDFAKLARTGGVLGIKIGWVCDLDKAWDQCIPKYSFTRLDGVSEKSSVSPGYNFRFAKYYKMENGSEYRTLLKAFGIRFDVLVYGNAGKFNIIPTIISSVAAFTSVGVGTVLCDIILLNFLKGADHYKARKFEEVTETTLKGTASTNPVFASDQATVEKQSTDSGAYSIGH
Method in brief: (§1)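 Transfected CHO-K1 (rat P2X3; human P2X2/3), Fluo-3 AM 2 μM 1 h 37 °C, buffer HBSS/10 mM HEPES/2 mM CaCl2/2.5 mM probenecid. Cpd 20 min RT, then α,β-meATP 1 μM (P2X3) / 5 μM (P2X2/3). Peak Ca2+ signal, nonlinear regression.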

human P2X2/3 receptor = target: T2, human P2X2/3 receptor (Homo sapiens, UniProt P56373+Q9UBL9); assay: P2X3/P2X2/3 FLIPR (Fluorometric Imaging Plate Reader) Assay, P2X2/3; assay type: cell-based; settings: CHO-K1 cells transfected with human P2X2/3; agonist α,β-meATP 5 μM; Table 1; read-out: P2X2/3 pKi (converted)
T2 construct: expressed in transfected cells; host or cells: CHO-K1
T2 sequence (Q9UBL9 1-471): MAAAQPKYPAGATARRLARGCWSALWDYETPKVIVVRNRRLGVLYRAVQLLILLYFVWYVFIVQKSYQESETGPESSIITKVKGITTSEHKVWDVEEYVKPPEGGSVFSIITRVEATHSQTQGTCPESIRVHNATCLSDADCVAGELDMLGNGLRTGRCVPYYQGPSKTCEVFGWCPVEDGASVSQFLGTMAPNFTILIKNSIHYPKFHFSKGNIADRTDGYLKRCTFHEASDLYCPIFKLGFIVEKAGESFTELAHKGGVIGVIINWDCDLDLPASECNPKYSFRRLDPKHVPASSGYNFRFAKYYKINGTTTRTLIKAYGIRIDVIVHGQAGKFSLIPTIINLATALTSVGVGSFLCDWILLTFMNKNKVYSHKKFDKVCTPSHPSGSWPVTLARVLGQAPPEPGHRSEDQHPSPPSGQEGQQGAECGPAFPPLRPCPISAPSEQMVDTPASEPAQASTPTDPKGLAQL
T2 sequence (P56373 1-397): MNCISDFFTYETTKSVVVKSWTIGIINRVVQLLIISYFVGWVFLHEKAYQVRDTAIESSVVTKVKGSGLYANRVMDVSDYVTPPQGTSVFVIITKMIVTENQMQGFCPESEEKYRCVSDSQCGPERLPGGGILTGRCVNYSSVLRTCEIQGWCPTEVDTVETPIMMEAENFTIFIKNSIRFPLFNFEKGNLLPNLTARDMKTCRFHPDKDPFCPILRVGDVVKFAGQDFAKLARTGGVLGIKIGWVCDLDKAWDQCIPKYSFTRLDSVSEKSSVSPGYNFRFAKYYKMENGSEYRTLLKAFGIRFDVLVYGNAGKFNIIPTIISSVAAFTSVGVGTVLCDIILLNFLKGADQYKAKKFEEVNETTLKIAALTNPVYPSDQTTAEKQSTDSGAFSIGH
Method in brief: as §1

Row | Ki (rat P2X3 receptor) | Ki (human P2X2/3 receptor) | SMILES
1 | 10.2 nM | 257 nM | CCc1ncnn1-c1cc(C(=O)NC(C)c2cnccn2)cc(-c2ccc(C)cn2)c1 (stereo not drawn) [Compound 128, 3-(5-Ethyl-[1,2,4]triazol-1-yl)-5-(5-methyl-pyridin-2-yl)-N-(1-pyrazin-2-yl-ethyl)-benzamide]
2 | 4.9 nM | 79.4 nM | CCc1ncnn1-c1cc(C(=O)NCc2cnc(C)cn2)cc(-c2ccc(C)cn2)c1 [Compound 129, 3-(5-Ethyl-[1,2,4]triazol-1-yl)-N-(5-methyl-pyrazin-2-ylmethyl)-5-(5-methyl-pyridin-2-yl)-benzamide]
3 | 4.27 nM | 182 nM | Cc1ccc(-c2cc(C(=O)NC3CC3)cc(-n3ncnc3CC(C)C)c2)nc1 [Compound 130, N-Cyclopropyl-3-(5-isobutyl-[1,2,4]triazol-1-yl)-5-(5-methyl-pyridin-2-yl)-benzamide]
4 | 3.72 nM | 158 nM | Cc1ccc(-c2cc(C(=O)N[C@@H](C)CO)cc(-n3ncnc3CC(C)C)c2)nc1 [Compound 131, N-((S)-2-Hydroxy-1-methyl-ethyl)-3-(5-isobutyl-[1,2,4]triazol-1-yl)-5-(5-methyl-pyridin-2-yl)-benzamide]
5 | 3.31 nM | 38.9 nM | Cc1ccc(-c2cc(C(=O)NCc3cnc(C)cn3)cc(-n3ncnc3C(C)C)c2)nc1 [Compound 132, 3-(5-Isopropyl-[1,2,4]triazol-1-yl)-N-(5-methyl-pyrazin-2-ylmethyl)-5-(5-methyl-pyridin-2-yl)-benzamide]
6 | 11 nM | 295 nM | COC(C)c1ncnn1-c1cc(C(=O)NCc2cnc(C)cn2)cc(-c2ccc(C)cn2)c1 (stereo not drawn) [Compound 133, 3-[5-(1-Methoxy-ethyl)-[1,2,4]triazol-1-yl]-N-(5-methyl-pyrazin-2-ylmethyl)-5-(5-methyl-pyridin-2-yl)-benzamide]
7 | 6.61 nM | 38 nM | COC(C)c1ncnn1-c1cc(C(=O)NCc2cnc(C)cn2)cc(-c2ccc(C)cc2)c1 (stereo not drawn) [Compound 134, 5-[5-(1-Methoxy-ethyl)-[1,2,4]triazol-1-yl]-4′-methyl-biphenyl-3-carboxylic acid (5-methyl-pyrazin-2-ylmethyl)-amide]
8 | 4.79 nM | 25.7 nM | Cc1ccc(-c2cc(C(=O)NCc3cnc(C)cn3)cc(-n3ncnc3C(C)C)c2)c(F)c1 [Compound 135, 2′-Fluoro-5-(5-isopropyl-[1,2,4]triazol-1-yl)-4′-methyl-biphenyl-3-carboxylic acid (5-methyl-pyrazin-2-ylmethyl)-amide]
9 | 5.37 nM | 20.9 nM | Cc1ccc(-c2cc(C(=O)NCc3cnc(C)cn3)cc(-n3ncnc3C(C)C)c2)cc1 [Compound 136, 5-(5-Isopropyl-[1,2,4]triazol-1-yl)-4′-methyl-biphenyl-3-carboxylic acid (5-methyl-pyrazin-2-ylmethyl)-amide]
10 | 11.5 nM | 398 nM | Cc1ccc(-c2cc(C(=O)NCc3cnc(C)cn3)cc(-c3ncnn3C(C)C)c2)cc1 [Compound 137, 5-(2-Isopropyl-2H-[1,2,4]triazol-3-yl)-4′-methyl-biphenyl-3-carboxylic acid (5-methyl-pyrazin-2-ylmethyl)-amide]
11 | 724 nM | 4170 nM | COc1nnc(C(C)C)n1-c1cc(C(=O)NCc2cnc(C)cn2)cc(-c2ccc(C)cc2)c1 [Compound 138, 5-(3-Isopropyl-5-methoxy-[1,2,4]triazol-4-yl)-4′-methyl-biphenyl-3-carboxylic acid (5-methyl-pyrazin-2-ylmethyl)-amide]
12 | 27.5 nM | 1700 nM | Cc1ccc(-c2cc(C(=O)NC3CC3)cc(-n3ncnc3C(C)N(C)C)c2)nc1 (stereo not drawn) [Compound 139, N-Cyclopropyl-3-[5-(1-dimethylamino-ethyl)-[1,2,4]triazol-1-yl]-5-(5-methyl-pyridin-2-yl)-benzamide]
13 | 20 nM | 2750 nM | Cc1ccc(-c2cc(C(=O)N[C@@H](C)CO)cc(-n3ncnc3C(C)N(C)C)c2)nc1 (stereo partly drawn) [Compound 140, 3-[5-(1-Dimethylamino-ethyl)-[1,2,4]triazol-1-yl]-N-((S)-2-hydroxy-1-methyl-ethyl)-5-(5-methyl-pyridin-2-yl)-benzamide]
14 | 12.3 nM | 214 nM | Cc1ccc(-c2cc(C(=O)NCc3cnc(C)cn3)cc(-n3ncnc3C(C)N(C)C)c2)nc1 (stereo not drawn) [Compound 141, 3-[5-(1-Dimethylamino-ethyl)-[1,2,4]triazol-1-yl]-N-(5-methyl-pyrazin-2-ylmethyl)-5-(5-methyl-pyridin-2-yl)-benzamide]
15 | 9.12 nM | 229 nM | Cc1ccc(-c2cc(C(=O)NC(C)c3cnccn3)cc(-n3ncnc3C(C)N(C)C)c2)nc1 (stereo not drawn) [Compound 142, 3-[5-(1-Dimethylamino-ethyl)-[1,2,4]triazol-1-yl]-5-(5-methyl-pyridin-2-yl)-N-(1-pyrazin-2-yl-ethyl)-benzamide]
16 | 20.9 nM | 1120 nM | Cc1ccc(-c2cc(C(=O)NCc3cnc(C)cn3)cc(-n3ncnc3-c3ccccc3)c2)nc1 [Compound 143, N-(5-Methyl-pyrazin-2-ylmethyl)-3-(5-methyl-pyridin-2-yl)-5-(5-phenyl-[1,2,4]triazol-1-yl)-benzamide]
17 | 182 nM | 8910 nM | Cc1ccc(-c2cc(C(=O)N[C@@H](C)CO)cc(-n3ncnc3-c3ccccc3)c2)nc1 [Compound 144, N-((S)-2-Hydroxy-1-methyl-ethyl)-3-(5-methyl-pyridin-2-yl)-5-(5-phenyl-[1,2,4]triazol-1-yl)-benzamide]
18 | 3.31 nM | 107 nM | Cc1ccc(-c2cc(C(=O)NCc3cnc(C)cn3)cc(-n3ncnc3CC(F)F)c2)nc1 [Compound 145, 3-[5-(2,2-Difluoro-ethyl)-[1,2,4]triazol-1-yl]-N-(5-methyl-pyrazin-2-ylmethyl)-5-(5-methyl-pyridin-2-yl)-benzamide]
19 | 4.57 nM | 2450 nM | COCCc1ncnn1-c1cc(C(=O)NCc2cnc(C)cn2)cc(-c2ccc(C)cn2)c1 [Compound 147, 3-[5-(2-Methoxy-ethyl)-[1,2,4]triazol-1-yl]-N-(5-methyl-pyrazin-2-ylmethyl)-5-(5-methyl-pyridin-2-yl)-benzamide]
20 | 60.3 nM | 10000 nM | COCCc1ncnn1-c1cc(C(=O)N[C@@H](C)CO)cc(-c2ccc(C)cn2)c1 [Compound 148, N-((S)-2-Hydroxy-1-methyl-ethyl)-3-[5-(2-methoxy-ethyl)-1-[1,2,4]triazol-1-yl]-5-(5-methyl-pyridin-2-yl)-benzamide]
21 | 20 nM | 7240 nM | CCOCCc1ncnn1-c1cc(C(=O)NCc2cnc(C)cn2)cc(-c2ccc(C)cn2)c1 [Compound 149, 3-[5-(2-Ethoxy-ethyl)-[1,2,4]triazol-1-yl]-N-(5-methyl-pyrazin-2-ylmethyl)-5-(5-methyl-pyridin-2-yl)-benzamide]
22 | 158 nM | 10000 nM | CCOCCc1ncnn1-c1cc(C(=O)N[C@@H](C)CO)cc(-c2ccc(C)cn2)c1 [Compound 150, 3-[5-(2-Ethoxy-ethyl)-[1,2,4]triazol-1-yl]-N-((S)-2-hydroxy-1-methyl-ethyl)-5-(5-methyl-pyridin-2-yl)-benzamide]
23 | 676 nM | 7240 nM | Cc1ccc(-c2cc(C(=O)NCc3cnc(C)cn3)cc(-n3ncnc3C3CNC3)c2)nc1 [Compound 151, 3-(5-Azetidin-3-yl-[1,2,4]triazol-1-yl)-N-(5-methyl-pyrazin-2-ylmethyl)-5-(5-methyl-pyridine-2-yl)-benzamide]
24 | 5.75 nM | 23.4 nM | Cc1ccc(-c2cc(C(=O)NCc3ccc(C)nn3)cc(-n3ncnc3C3CCC3)c2)nc1 [Compound 152, 3-(5-Cyclobutyl-[1,2,4]triazol-1-yl)-N-(6-methyl-pyridazin-3-ylmethyl)-5-(5-methyl-pyridin-2-yl)-benzamide]
